Laboratory results taken from publication PMC6235670, “An mTOR Signaling Modulator Suppressed Heterotopic Ossification of Fibrodysplasia Ossificans Progressiva” (Stem Cell Reports, 2018).
pIC50: −log10 of the molar value.

Legend:
[1] = AlamarBlue viability assay in ATDC5/FOP-ACVR1; settings: mouse, ATDC5 cells stably expressing FOP-ACVR1 (ATDC5/FOP-ACVR1)
Method: (§1) Generation of ATDC5 stably expressing ACVR1. WT - or FOP-ACVR1 was inserted into doxycycline (Dox)- […]
(§2) (KW111/WT-ACVR1 or KW111/FOP-ACVR1). KW111/WT-ACVR1 or KW111/FOP-ACVR1 and PBaseII […]
(§3) FuGeneHD® (Promega) according to the manufacturer’s protocol, and the neomycin- resistant population (500 µg/mL) was selected. Further selection was performed by selecting a mCherry high positive population (< 5%) after six hours of Dox treatment, sorting it with fluorescent-activated cell sorting (FACS) using AriaII (BD) according to the manufacturer’s protocol, and designating it as ATDC5/WT-ACVR1 or ATDC5/FOP-ACVR1.
(§4) KW111 included PB, active transposable PB elements; TRE-mCMVP, Tetracycline Response Element and a minimal CMV promoter; rtTA, reverse tetracycline-controlled transactivator. PBaseII was an expression plasmid vector containing the PB transposase cDNA with optimized codon usage to human under the control […]
(§5) HTS campaign and follow-up screens. ATDC5/FOP-ACVR1 cells were plated in 96-well white plates (2,000 cells/well/40 µ L, Corning) in DMEM/F-12 supplemented with 5% (v/v) FBS. […]
(§6) 37 °C under 5% CO2. After 3 days incubation, Alkaline Phosphatase activity (ALP) or AlamarBlue activity was measured using Amplite™ Colorimetric Alkaline Phosphatase Assay Kit (AAT Bioquest) or alamarBlue® Cell Viability Reagent (Thermo Fisher Scientific) according to the manufacturer’s protocol, respectively. T h e […]
(§7) was measured on POWERSCAN4 (DS Pharma Biomedical) or EnVision® Multilabel Reader (PerkinElmer).
(§8) Inhibitory effects of the screened compounds are given as percent inhibition, which was calculated using the following equation: (1-([Abs of compound] - [Abs of Min])/([Abs of Max] - [Abs of Min]))× 100, where [Abs of Max] and [Abs of Min] are the mean Abs of DMSO control and 1 µM DMH-1, respectively. The Z’ factor, which is widely used as a measure of the assay quality of each plate, was calculated using the following equation: Z’ factor = 1 - 3 × ([SD of Max] + [SD of Min])/([Abs of Max] - [Abs of Min]) (SI Appendix, Fig.
(§9) The S/B (signal-to-background) ratio was calculated using the following equation: ([Abs of Max]/[Abs of Min]) (SI Appendix, Fig. S3B).
(§10) Using ATDC5/FOP-ACVR1 cells, we performed a first screening (n=2; test compounds = 1 µM, Fig. […]

[2] = system: ATDC5/FOP-ACVR1 cells; test: ALP assay (HTS and dose-response) in ATDC5/FOP-ACVR1; type: cell-based, mouse; settings: same protocol as HTS (72 h)
[3] = system: FOP-iMSCs; test: 2D chondrogenic induction of FOP-iMSCs with activin A (GAG, Alcian blue); type: cell-based, human; settings: activin A, 7 days
[4] = system: FOP-iMSCs; test: Microarray / pathway analysis of activin A-induced chondrogenesis of FOP-iMSCs; type: cell-based, human; settings: 100 nM, 100 ng/mL Activin-A, 7 days, microarray, N = 1
Method: Microarray experiments. 2D chondrogenic induction was performed in FOP-iMSCs stimulated with or without 100 ng/mL Activin-A, TAK 165, CP-724714 and Lapatinib. Seven days after incubation, mRNA was extracted. RNA was reverse transcribed, biotin-labeled and hybridized to GeneChip Human Gene 1.0 ST Expression Array, which was subsequently washed and scanned according to the manufacturer’s instructions (Affymetrix). Raw CEL files were imported into GeneSpring GX 12.6.1 software (Agilent Technologies), and expression values were calculated with the RMA16 algorithm. Pathway analysis was performed by Ingenuity pathway analysis (Qiagen). […]

[5] = system: ATDC5/FOP-ACVR1 cells; test: AlamarBlue viability assay in ATDC5/FOP-ACVR1; settings: AlamarBlue, ATDC5/FOP-ACVR1, 10 μM
Method: as §1, §2, §3, §4, §5, §6, §7, §8, §9, §10

COc1ccc(-c2ccc3c(N4CCOC[C@@H]4C)nc(N4CCOC[C@@H]4C)nc3n2)cc1CO [AZD8055]
viability at 3 days, 10 µM [1]: 25%
pIC50 ([2]; Mus musculus): 7.11

C=C1/C(=C\C=C2/CCC[C@]3(C)[C@@H]([C@H](C)CCCC(C)C)CC[C@@H]23)C[C@@H](O)C[C@@H]1O [Alfacalcidol]
viability at 3 days, 10 µM [1]: 54%
pIC50 ([2]; Mus musculus): 6.28

pertuzumab: ERBB2-selective neutralizing antibody
effect on GAG in the chondrogenesis of FOP-iMSCs (ERBB2 neutralizing antibodies) ([3]; 1 µg/mL): no effect

CS(=O)(=O)CCNCc1ccc(-c2ccc3ncnc(Nc4ccc(OCc5cccc(F)c5)c(Cl)c4)c3c2)o1 [lapatinib]
effect on GAG in the chondrogenesis of FOP-iMSCs (ERBB2 kinase inhibitors) ([3]; 100 nM and 1 µM): no effect
ADAMTS5 expression ratio to the TAK 165-treated group [4]: 2.1
BMP4 expression ratio to the TAK 165-treated group [4]: 0.4
DKK1 expression ratio to the TAK 165-treated group [4]: 2.1
FOS expression ratio to the TAK 165-treated group [4]: 2.4
FRZB expression ratio to the TAK 165-treated group [4]: 3.0
FZD3 expression ratio to the TAK 165-treated group [4]: 0.4
ITGA3 expression ratio to the TAK 165-treated group [4]: 2.5
ITGB3 expression ratio to the TAK 165-treated group [4]: 3.6
MMP1 expression ratio to the TAK 165-treated group [4]: 3.0
MMP13 expression ratio to the TAK 165-treated group [4]: 6.9
PIK3R3 expression ratio to the TAK 165-treated group [4]: 2.1
SPP1 expression ratio to the TAK 165-treated group [4]: 3.7
TNFRSF11B expression ratio to the TAK 165-treated group [4]: 0.5
WIF1 expression ratio to the TAK 165-treated group [4]: 0.1
WNT16 expression ratio to the TAK 165-treated group [4]: 0.5

Cn1c(=O)n(-c2ccc(C(C)(C)C#N)cc2)c2c3cc(-c4cnc5ccccc5c4)ccc3ncc21 [BEZ235]
viability at 3 days, 10 µM [1]: 21%
pIC50 ([2]; Mus musculus): 7.06

CCc1c2c(nc3ccc(O)cc13)-c1cc3c(c(=O)n1C2)COC(=O)[C@]3(O)CC [SN 38]
Viability (%) @10 μM [5]: 17%
pIC50 [2]: 7.01

CC(C)(C)Cn1c(N)nc2ccc(-c3[nH]c(C(C)(C)C)nc3-c3ccc(F)cc3)nc21 [LY2228820]
viability at 3 days, 10 µM [1]: 75%
pIC50 ([2]; Mus musculus): 7.96

CC(C)(C)n1nc(-c2cccc3ccccc23)c2c(N)ncnc21 [1-Naphthyl PP1]
Viability (%) @10 μM [5]: 83%
pIC50 [2]: 4.91
